Experimental findings from patent US20130296393A1, “METHOD FOR CONTROLLING CLUBROOT” (ISHIHARA SANGYO KAISHA, LTD., priority 2011, published 2013) are described below.

Common to all, as to assay type: in vivo
The test system of test [1] is Plasmodiophora brassicae. Put plainly: Cabbage clubroot control test, pot test, cyazofamid vs chlorothalonil (Example 3 / Comparative Example 3). Also noted: key to Disease control value: control value = (1 − treated/control severity) × 100; key to Disease severity: severity = Σ(plants × index 0-4)/(plants × 4) × 100. As to conditions: for Disease control value / Disease severity: 57 days after settled planting. The source says: (§1) Disease severity={Σ(number of each index of diseased plants×disease index)/(number of plants surveyed×4)}×100
(§2) Disease control value={1−(treatment disease severity/control disease severity)}×100
(§3) 0: No adhesion of clubroot, 1: clubroot adhesion to lateral root, 2: clubroot adhesion to the entire lateral root or clubroot adhesion to a part of tap root, 3: adhesion of large clubroot to tap root, and 4: clubroot adhesion to the entire tap root.
A spore suspension of Plasmodiophora brassicae (fungus density: 1×10^5 fungi/g dry soil) was inoculated into a sterilization soil adjusted to pH of 6.0 with Sandoseto and after introducing the resulting test soil into a 1/5000 a pot, a cabbage (variety: Okina) seedling grown in a cell seedling tray (128 cells/seedling box) was settled-planted by establishing five plantings for each test section having a size of 0.02 m^2 for one plant. Immediately, 4 days, 7 days and 14 days after settled planting, the chemical solution for spraying prepared by the same method as in Example 1(1) was drenched into the soil in a ratio of 250 ml/plant. Fifty-seven days after the settled planting, the number of each index of clubroot adhesion to the root was investigated. For comparison, the same test was carried out on a control section where a soil drench treatment with the chemical solution for spraying was not applied.
A chemical solution for spraying in a concentration of 800 ppm was prepared by diluting 40% chlorothalonil (Daconil 1000 [trade name], manufactured by SDS K.K.) with water.
The test was carried out by the same procedure as in Example 3 except that the chemical solution (cyazofamid) for spraying was replaced by the chemical solution (chlorothalonil) for spraying prepared in Comparative Example 3(1).
The disease severity and disease control value of Example 3 and Comparative Example 3 were determined by the same methods as in Example 1 and Comparative Example 1. In addition, the weight of cabbage in the aerial part was measured. Furthermore, the test result was shown by the average value of five plantings.

Test [2] deals with Plasmodiophora brassicae. Put plainly: Influence of rainfall on clubroot control effect in cabbage (Example 4 / Comparative Example 4). To be noted: pot; for Weight in the aerial part / Disease control value / Disease severity: 0.3% dust formulation 30 kg/10 a soil incorporation just before settled planting; for Disease control value / Disease severity: 67 days after settled planting. The procedure:
as §1, §2, §3
The test was carried out by the same method as in Example 3 except for preparing an area subjected to a rainfall treatment of 20 mm by means of a rainfall apparatus (a treatment at a rate of 10 mm/hour for 2 hours) the day before treatment, and an area not subjected to the rainfall treatment. Sixty-seven days after the settled planting, the number of each index of clubroot adhesion to the root was investigated. For comparison, the same test was carried out on a control section where a soil drench treatment with the chemical solution for spraying was not applied.
The test was carried out by the same method as in Example 4 except that in place of the soil drench treatment with the chemical solution for spraying, 30 kg/10 a of 0.3% flusulfamide (dust formulation of Nebijin [trade name], manufactured by Mitsui Chemicals Agro, Inc.) was applied to the test soil just before the settled planting and incorporated into the soil by means of a small mixer (interfusion depth: 15 cm).
The disease severity and disease control value of Example 4 and Comparative Example 4 were determined by the same methods as in Example 1 and Comparative Example 1. In addition, the weight of cabbage in the aerial part was measured. Furthermore, the test result was shown by the average value of five plantings.

In test [3] the test system is Plasmodiophora brassicae. Put plainly: Cabbage clubroot control test, pot test (Example 1 / Comparative Example 1). As to conditions: 0.3% dust formulation 30 kg/10 a soil incorporation just before settled planting. The procedure:
A chemical solution for spraying at 50 ppm was prepared by diluting 9.4% w/w cyazofamid (Ranman [trade name] flowable, manufactured by Ishihara Sangyo Kaisha Ltd.) with water.
A spore suspension of Plasmodiophora brassicae (fungus density: 1×10^5 fungi/g dry soil) was inoculated into a sterilization soil adjusted to pH of 6.2 with Sandoseto and after introducing the resulting test soil into a 1/5000 a pot, a cabbage (variety: Okina) seedling grown in a cell seedling tray (128 cells/seedling box) was settled-planted by establishing five plantings for each test section having a size of 0.02 m^2 per one plant. Just after the settled planting, 3 days, 7 days, 10 days and 14 days after the settled planting, the chemical solution for spraying prepared in (1) was applied by soil drench at a ratio of 250 ml/plant. Sixty days after the settled planting, the number of each index of clubroot adhesion to the root was investigated. For comparison, the same test was carried out on a control section where a soil drench treatment with the chemical solution for spraying was not applied.
The test was carried out by the same method as in Example 1(2) except that in place of the soil drench treatment with the chemical solution for spraying, 30 kg/10 a of 0.3% flusulfamide (dust formulation of Nebijin [trade name], manufactured by Mitsui Chemicals Agro, Inc.) was applied to the test soil just before settled planting and incorporated into the soil by means of a small mixer (interfusion depth: 15 cm).
In Example 1 and Comparative Example 1, the adhesion of clubroot was investigated by pulling out the root of cabbage. The adhesion of clubroot was investigated by calculating the disease severity using the following formula. In addition, the weight of cabbage in the aerial part was measured. Furthermore, the test result was shown by the average value of five plantings.
as §1, §2, §3

The mark [4] stands for this setting: 800 ppm soil drench 250 ml/plant 4 days after settled planting.
Where [5] appears, read: 800 ppm soil drench 250 ml/plant 7 days after settled planting.
The mark [6] stands for this setting: 800 ppm soil drench 250 ml/plant 14 days after settled planting.
Where [7] appears, read: 800 ppm soil drench 250 ml/plant just after settled planting.
The mark [8] stands for this setting: 800 ppm soil drench after settled planting.
Where [9] appears, read: with rainfall treatment, dust formulation soil incorporation just before settled planting.

For the compound `N#Cc1c(Cl)c(Cl)c(Cl)c(C#N)c1Cl` [chlorothalonil], in the test with Plasmodiophora brassicae [1] (setting [4]), the “Weight in the aerial part” value came to 92 g, the Disease control value came out at 25 and the Disease severity is on record as 60. Besides, in the test with Plasmodiophora brassicae [1] (setting [5]), the “Weight in the aerial part” value amounted to 69 g, the Disease control value stood at 0 and the Disease severity is reported as 90. Moreover, in the test with Plasmodiophora brassicae [1] (setting [6]), the “Weight in the aerial part” value came to 70 g, the Disease control value turned out to be 0 and the Disease severity was determined as 90. Besides, in the test with Plasmodiophora brassicae [1] (setting [7]), the “Weight in the aerial part” value is given as 96 g, the Disease control value was determined as 56 and the Disease severity was 35. Moreover, in the test with Plasmodiophora brassicae [1] (setting [8]), the Control effect result is recorded as “a control effect which is sufficient for practical use was not obtained” and the “Effect of the disease on weight in the aerial part” value is recorded as “greatly affected by the disease”.

As for `O=[N+]([O-])c1ccc(NS(=O)(=O)c2ccc(Cl)c(C(F)(F)F)c2)c(Cl)c1` [flusulfamide], in the test on Plasmodiophora brassicae [2] (with rainfall treatment 20 mm), the “Weight in the aerial part” value is recorded as 104 g, the Disease control value is reported as 50 and the Disease severity was 35. In the test on Plasmodiophora brassicae [2] (setting [9]), the Control effect result is “a practical control effect was not obtained” and the “Effect of the disease on weight in the aerial part” value is recorded as “greatly affected by the disease”. In addition, in the test on Plasmodiophora brassicae [2] (without rainfall treatment), the “Weight in the aerial part” value stood at 118 g, the Disease control value stood at 100 and the Disease severity was 0. The “Weight in the aerial part” value with Plasmodiophora brassicae [3] came out at 173 g. In the test on Plasmodiophora brassicae [3] (60 days after settled planting), this compound gave a Disease control value of 100 and a Disease severity of 0.
